Laboratory results from patent US20250236603A1, “SOLID FORMS OF ALECTINIB AND ALECTINIB SALTS” (Synthon B.V., priority 2022, published 2025).
Like-named read-outs stand apart in the source and are kept apart here.

Experiments:
[1] = pH 1.2
Method: (§1) 20 mg of the Alectinib salt was mixed 10 ml of a mixture of buffer pH 1.2 and 4% Triton X-100. The mixture was placed into a stirring carousel at temperature +37° C. and 100 rpm. After 1 hour and 4 hours about 1 mL of each sample was taken and filtered through a 0.45 μm filter into a vial. Then each sample was diluted with Solvent solution to get signal of absorbance ≤1 at 265 nm, transferred into a vial and measured by HPLC method.
(§2) 20 mg of the Alectinib salt was mixed 10 ml of a mixture of buffer pH 1.2 and 4% Triton X-100. The mixture was placed into a stirring carousel at temperature+37° C. and 100 rpm. After 1 hour and 4 hours about 1 mL of each sample was taken and filtered through a 0.45 μm filter into a vial. Then each sample was diluted with Solvent solution to get signal of absorbance≤1 at 265 nm, transferred into a vial and measured by HPLC method.

[2] = Solubilities of prepared salts (buffer pH 1.2 with 4% Triton X-100, HPLC); details: 100 rpm
Method: as §1, §2

[3] = Example 18, 20 mg salt in 10 ml buffer pH 1.2 and 4% Triton X-100, +37° C.
[4] = Example 10, 20 mg salt in 10 ml buffer pH 1.2 and 4% Triton X-100, +37° C.
[5] = Example 28, 20 mg salt in 10 ml buffer pH 1.2 and 4% Triton X-100, +37° C.
[6] = Example 18, 20 mg salt in 10 ml buffer pH 1.2 and 4% Triton X-100, +37° C., maleate salt
[7] = Example 10, 20 mg salt in 10 ml buffer pH 1.2 and 4% Triton X-100, +37° C., acetate salt

Row | Molecule | Solubility after 1 hour [1] [mg/mL] | Solubility after 1 hour [2, 3] [mg/mL] | further results
1 | CCc1cc2c(cc1N1CCC(N3CCOCC3)CC1)C(C)(C)c1[nH]c3cc(C#N)ccc3c1C2=O.CS(=O)(=O)O [Methane sulfonate salt, Form 12, Alectinib methane sulfonate salt] | 1.35 |  | 
2 | CCc1cc2c(cc1N1CCC(N3CCOCC3)CC1)C(C)(C)c1[nH]c3cc(C#N)ccc3c1C2=O.CS(=O)(=O)O [Methane sulfonate salt, Form 13, Alectinib methane sulfonate salt] | 1.30 |  | 
3 | CCc1cc2c(cc1N1CCC(N3CCOCC3)CC1)C(C)(C)c1[nH]c3cc(C#N)ccc3c1C2=O.O=C(O)C=CC(=O)O [Fumaric acid (1:1) salt, Form 2, Alectinib fumaric acid (1:1) salt] |  | 1.30 | 
4 | CCc1cc2c(cc1N1CCC(N3CCOCC3)CC1)C(C)(C)c1[nH]c3cc(C#N)ccc3c1C2=O.CS(=O)(=O)O [Methane sulfonate salt, Form 15, Alectinib methane sulfonate salt] | 1.19 |  | 
5 | CCc1cc2c(cc1N1CCC(N3CCOCC3)CC1)C(C)(C)c1[nH]c3cc(C#N)ccc3c1C2=O.CS(=O)(=O)O [Methane sulfonate salt, Form 14, Alectinib methane sulfonate salt] | 1.32 |  | 
6 | Tosylate [reference compound] |  | 0.5 | Solubility after 1 hour [2, 4]: 0.5 mg/mL; Solubility after 1 hour [2, 5]: 0.5 mg/mL
7 | CCc1cc2c(cc1N1CCC(N3CCOCC3)CC1)C(C)(C)c1[nH]c3cc(C#N)ccc3c1C2=O.CCc1cc2c(cc1N1CCC(N3CCOCC3)CC1)C(C)(C)c1[nH]c3cc(C#N)ccc3c1C2=O.O=C(O)C=CC(=O)O [Fumaric acid (2:1) salt, Form 2, Alectinib fumaric acid (2:1) salt] |  | 1.23 | 
8 | CCc1cc2c(cc1N1CCC(N3CCOCC3)CC1)C(C)(C)c1[nH]c3cc(C#N)ccc3c1C2=O.O=C(O)C=CC(=O)O [Fumaric acid (1:1) salt, Form 6, Alectinib fumaric acid (1:1) salt] |  | 1.22 | 
9 | CCc1cc2c(cc1N1CCC(N3CCOCC3)CC1)C(C)(C)c1[nH]c3cc(C#N)ccc3c1C2=O.O=C(O)C=CC(=O)O [Hydrogen maleate salt, Form 1, Alectinib hydrogen maleate salt] |  |  | Solubility after 1 hour [2, 6]: 2.38 mg/mL
10 | CCc1cc2c(cc1N1CCC(N3CCOCC3)CC1)C(C)(C)c1[nH]c3cc(C#N)ccc3c1C2=O.CS(=O)(=O)O [Methane sulfonate salt, Form 3, Alectinib methane sulfonate salt] | 1.21 |  | 
11 | Alectinib acetate salt [Acetate, Form 2] |  |  | Solubility after 1 hour [2, 7]: 0.87 mg/mL
12 | CCc1cc2c(cc1N1CCC(N3CCOCC3)CC1)C(C)(C)c1[nH]c3cc(C#N)ccc3c1C2=O.Cl [HCl, reference compound] |  | 0.37 | Solubility after 1 hour [2, 4]: 0.37 mg/mL; Solubility after 1 hour [2, 5]: 0.37 mg/mL
13 | Alectinib acetate salt [Acetate, Form 4] |  |  | Solubility after 1 hour [2, 7]: 1.22 mg/mL
14 | Alectinib tartrate salt [Tartrate, Form 8] |  | 1.23 | 
15 | CCc1cc2c(cc1N1CCC(N3CCOCC3)CC1)C(C)(C)c1[nH]c3cc(C#N)ccc3c1C2=O.O=C(O)C=CC(=O)O [Hydrogen maleate salt, Form 2, Alectinib hydrogen maleate salt] |  |  | Solubility after 1 hour [2, 6]: 1.26 mg/mL
